According to US10100307B2, “Use of a reverse-transcriptase inhibitor in the prevention and treatment of degenerative diseases” (Centre National de la Recherche Scientifique, priority 2014, dated 2018):

What was measured:
primary midbrain neurons = experiment: Formation of DNA breaks induced by transfection with a plasmid (wt L1) overexpressing LINE-1; format: cell-based, mouse; conditions: Stavudine 10 μM added 24 hours before and during lipofection; FIG. 2B; ***p<0.001, n=6
Protocol: (§1) Embryonic midbrain neurons (embryonic day 13.5) are cultured in NBGK medium (Neurobasal® (Life Technologies) supplemented with glutamine (500 μM, SIGMA), glutamic acid (3.3 mg/ml, SIGMA), aspartic acid (3.7 mg/ml, SIGMA), anti-anti and B27® (GIBCO)). A midbrain neuron culture was incubated overnight in the presence of Stavudine (10 μM in 0.9% NaCl). A control culture was treated under the same conditions, with a solution of NaCl (0.9%). The following day, the culture medium was replaced with Neurobasal® medium (Life Technologies) not supplemented with B27® (Life Technologies), containing 5 μM of H2O2 and 10 μM Stavudine/NaCl, for 1 h (FIG. 2). Alternatively, the cells were treated with H2O2 (100 μM) in the presence of B27 for one hour. Stavudine (10 μM) was added twice, 24 hours before and during treatment with H2O2 or lipofection (FIG. 2). The neurons were then fixed with PBS 4% paraformaldehyde (PFA) for 20 min, then treated with glycine (100 mM) in PBS for 10 min. […] The number of gamma-H2AX foci per neuron was counted on several slides, then the mean was taken over more than 30 neurons. […]

[1] = system: Mouse embryonic midbrain neurons; experiment: Formation of DSBs (gamma-H2AX foci per neuron) induced by H2O2 oxidative stress in vitro; format: cell-based; conditions: Stavudine 10 μM; gamma-H2AX labeling; H2O2 for 1 h; FIG. 2A; ***p<0.001, n=6
Protocol: as §1
Mouse embryonic midbrain neurons (14 days' gestation), treated or untreated with an RT inhibitor (Stavudine), were subjected to an oxidative stress by addition of H2O2. […] The number of DSBs per neuron was evaluated after γ-H2AX labeling.

[2] = system: TH+ neurons in the substantia nigra pars compacta; experiment: 6-OHDA injection into the substantia nigra (oxidative stress in vivo), stereological count of TH+ neurons; set-up: species or system mice; conditions: 24 h after injection of 6-OHDA; Stavudine 10 μM injected 30 min before and with 6-OHDA; FIG. 3B; **p<0.01, n=5
Protocol: For the 6-OHDA (6-hydroxydopamine) injections, anesthetized mice were placed on a stereotactic device and a burr hole was drilled in the cranium, 3.3 mm caudally and 1 mm laterally from the bregma. The needle of the syringe was aligned over the hole and descended 4 mm from the surface of the cranium, and 6-OHDA (2 μl; 0.8 μg/μl Sigma) or control (NaCl 0.9%) was injected into the SNpc for more than 4 min. For the immunohistological analysis, the mice were sacrificed 6 h, 24 h or 7 days after 6-OHDA injection. For the qRT-PCR analyses, tissues from the SNpc 6 h after 6-OHDA injection were obtained by extracting 1 mm samples from 2 mm thick disks of frozen tissue, using a stereotactic apparatus. The tissues were embedded in OCT, frozen in cooled isopentane, then preserved at -80° C. before being sectioned. 20 μm thick sections of the brain at the SNpc were made. […] The labeled brain sections were visualized using a confocal fluorescence microscope (SP5, Leica). […] The microscopy images were analyzed using the VisioScan T4.18 software (ExploraNova, La Rochelle, France) as described previously ([…]. 2003). The cell numbers were quantified stereologically on sections spaced apart regularly covering all of the rostrocaudal extent of the substantia nigra, using the VisioScan stereology tool. […]

## Cc1cn([C@H]2C=C[C@@H](CO)O2)c(=O)[nH]c1=O [Stavudine, 2′-3′-didehydro-2′-3′-dideoxythymidine]
Primary midbrain neurons
  formation of DNA breaks induced by wt L1 plasmid overexpressing LINE-1: suppressed
[1]
  reduction of the formation of DSBs induced by H2O2: 40%
[2]
  number of TH+ neurons in the substantia nigra pars compacta (cell death after oxidative stress in vivo): higher
